{
  "source": "patent US20110105603A1",
  "about": "“COMPOSITIONS AND METHODS FOR TREATING BETA-AMYLOID RELATED DISEASES” (priority 2009, published 2011)",
  "key": {"[1]": {"target": "Cathepsin B (Homo sapiens, UniProt P07858)", "experiment": "biochemical"}, "[2]": {"test_system": "dogs with canine dementia", "conditions": "in one month; cited from earlier work"}, "[3]": {"conditions": "animals, radioactive AB-007; cited from earlier work"}, "[4]": {"conditions": "cited from earlier work"}, "[5]": {"test_system": "cathepsin B", "experiment": "Example 9: brain cathepsin B activity in guinea pigs", "type": "in vivo, guinea pig", "conditions": "once-a-day oral", "method": "(§1) Guinea Pig Gavage Dosing: Guinea pigs were gavaged daily for one week. Guinea pigs were lightly anesthetized with isoflurane prior to gavaging. 250 μl of compound solution was gavaged daily per animal and animals were sacrificed 4 hrs after the last dosing.\nThe brain cathepsin B activity in guinea pigs was measured as follows: Cathepsin B activity was determined using a fluorometric assay kit from Abcam, Inc. (catalog ab65300; Cambridge, Mass.) as described by the manufacturer."}, "[6]": {"test_system": "rats", "conditions": "cited from earlier work"}, "[7]": {"conditions": "oral; cited from earlier work"}, "[8]": {"test_system": "healthy human volunteers", "conditions": "single or continuous 1 week oral administration at about 5 mg/kg/day; cited from earlier work"}, "[9]": {"test_system": "dogs", "conditions": "cited from earlier work"}, "[10]": {"test_system": "brain Aβ40 and brain Aβ42", "experiment": "Example 8: brain Aβ40 and Aβ42 ELISA after oral gavage in wild-type guinea pigs", "type": "in vivo", "conditions": "guinea pig, 10 mg/kg/day oral, 7 days"}, "[11]": {"test_system": "BACE1", "experiment": "Example 9: brain BACE1 activity in guinea pigs", "type": "in vivo, guinea pig", "conditions": "once-a-day oral", "method": "as §1, with “dosing. The brain BACE1 activity in guinea pigs was measured by Beta secretase activity was determined using a fluorometric assay kit from Abcam (ab65357) as described by the manufacturer.” for “dosing.”"}, "[12]": {"test_system": "transgenic APPlon mice", "experiment": "Example 9: Morris water maze, spatial memory deficit in transgenic APPlon mice", "conditions": "E64d-doped chow 1 or 3 months, either age group", "from_the_text": "Transgenic AD Mice. Transgenic mice expressing human APP containing the wt β-secretase site and the London mutant γ-secretase site sequences (also called “transgenic APPlon mice”, or “London APP mice”) were generated at the Ralph A. Johnson VA Medical Center (Charleston, S.C.) by methods previously described, see e.g., Hook, et al. (2008) J. Biol. Chem. 283:7745-7753. Briefly, APPLn was generated using site-directed mutagenesis to insert the V7171 London mutation into human APP cDNA. The mouse strain was created in a C57BL/6 mouse background using the Thy-1.2 expression cassette driven by the Thy-1 promoter containing an SV40 polyadenylation site. Mice were given free access to food and water before and during the experiment. […]\nThe memory deficit in transgenic APPln mice (APPlon mice) was measured using the Morris water maze test. Briefly, the spatial memory capability of each animal was assessed by the Morris water maze test as described e.g., by S. Mueller-Steiner (2006) Neuron 51:703-714; using catalog part no. […] Two days following the nonspatial pretraining, the hidden platform was placed in the center of one quadrant of the pool, the animal was released facing the pool wall in a random fashion, the time was recorded (latency period), and the distance traveled to reach the platform was measured using video recording (Smart Video Tracking System; SD Instruments)."}, "[13]": {"test_system": "Aβ40 and Aβ42", "experiment": "Example 9: brain, CSF and plasma Aβ after once-a-day gavage in guinea pigs", "type": "in vivo, guinea pig", "conditions": "once-a-day for one week oral", "excerpt": "Guinea Pigs. Guinea Pigs (Harley strain, average weight 400 g corresponding to animals about 6 weeks old) were obtained from Charles River (Wilmington, Mass.). The animals were given free access to standard chow and water before and during the experiment. Gavage Formulation: Delivering a drug by gavage offers the advantage of accurate dosing but is traumatic and thus only suitable for relatively short dosing periods. Gavage delivery was used for the guinea pig work. E64d was resuspended in DMSO at indicated concentrations (see Figures, and below) and guinea pigs were gavaged daily using a feeding tube. Vehicle control animals were provided DMSO alone. Guinea Pig Gavage Dosing: Guinea pigs were gavaged daily for one week. Guinea pigs were lightly anesthetized with isoflurane prior to gavaging. 250 μl of compound solution was gavaged daily per animal and animals were sacrificed 4 hrs after the last dosing."}},
  "data": [
    {"smiles": "CC(C)CCNC(=O)[C@H](CC(C)C)NC(=O)[C@H]1O[C@@H]1C(=O)O", "note": "[Compound E64c]", "values": [
      {"measurement": "IC50", "setting": "[1]", "result": 1, "unit": "nM"}
    ]},
    {"smiles": "C#CCN(C)[C@H](C)Cc1ccccc1", "note": "[Anipryl]", "values": [
      {"measurement": "affected dogs with improved behavior", "setting": "[2]", "result": "about 75%"}
    ]},
    {"smiles": "[2H]C([2H])([2H])C(C)C[C@H](NC(=O)[C@H]1O[C@@H]1C(=O)O)C(=O)NCCC(C)C", "note": "(stereo partly drawn) [Compound 1B, (2S,3S)-3-((S)-1-(Isopentylamino)-4-methyl-d3-1-oxopentan-2-ylcarbamoyl)oxirane-2-carboxylic acid]", "values": [
      {"measurement": "IC50", "setting": "[1]", "result": 2, "unit": "nM"}
    ]},
    {"smiles": "[2H][C@@](CC(C)C)(NC(=O)[C@H]1O[C@@H]1C(=O)O)C(=O)NCCC(C)C", "note": "[Compound 3B, (2S,3S)-3-((S)-2-d1-1-(isopentylamino)-4-methyl-1-oxopentan-2-ylcarbamoyl)oxirane-2-carboxylic acid]", "values": [
      {"measurement": "IC50", "setting": "[1]", "result": 1.9, "unit": "nM"}
    ]},
    {"smiles": "[2H]C([2H])([2H])C([2H])(C[C@H](NC(=O)[C@H]1O[C@@H]1C(=O)O)C(=O)NCCC(C)C)C([2H])([2H])[2H]", "note": "[Compound 2B, (2S,3S)-3-((S)-4,5,5,5-d4-1-(isopentylamino)-1-oxo-4-(methyl-d3)pentan-2-ylcarbamoyl)oxirane-2-carboxylic acid]", "values": [
      {"measurement": "IC50", "setting": "[1]", "result": 1.5, "unit": "nM"}
    ]},
    {"smiles": "CCOC(=O)[C@H]1O[C@@H]1C(=O)N[C@@H](CC(C)C)C(=O)NCCC(C)C", "note": "(relative stereo) [AB-007, (2S,3S)-trans-epoxysuccinyl-L-leucyl-amido-3-methylbutane ethyl ester]", "values": [
      {"measurement": "concentration in all other organs, including the brain", "setting": "[3]", "result": "corresponding to the plasma concentration or concentrations lower than plasma"},
      {"measurement": "kidney concentration relative to plasma concentration", "setting": "[3]", "result": "~12", "unit": "times"},
      {"measurement": "effect on the central nervous system", "setting": "[4]; high oral doses (500 mg/kg and 1 g/kg)", "result": "depress the central nervous system, causing sedation and mild inhibition of pentetrazol-induced seizure"},
      {"measurement": "influence on vision or hearing", "setting": "[4]; maximal intravenous or oral doses, rats", "result": "do not influence vision or hearing"},
      {"measurement": "brain cathepsin B activity", "setting": "[5]", "result": "dose response reduction"},
      {"measurement": "subacute no-effect dose", "setting": "[6]; oral, rats", "result": "under 80 mg/kg/day"},
      {"measurement": "chronic toxicity no-effect dose level", "setting": "[6]; rat, in vivo", "result": "below 2 mg/kg/day"},
      {"measurement": "target organs for toxicity", "setting": "[6]; rat, in vivo", "result": "liver and kidney"},
      {"measurement": "hepatic injury, species sensitivity", "setting": "[6]; rats versus other species", "result": "hepatic injury seen in rats does not occur in other species"},
      {"measurement": "conversion in the gut to E64c", "setting": "[7]", "result": "rapidly and completely converted"},
      {"measurement": "hematological tests, blood chemistry, urinalyses", "setting": "[8]", "result": "no changes"},
      {"measurement": "pulse, blood pressure, body temperature, grip force, electrocardiogram, physician observations", "setting": "[8]", "result": "no change"},
      {"measurement": "chronic toxicity no-effect dose level", "setting": "[9]; dog, in vivo", "result": "< 5", "unit": "mg/kg/day"},
      {"measurement": "subacute no-effect dose", "setting": "[9]; oral, dogs", "result": "< 40", "unit": "mg/kg/day"},
      {"measurement": "reduction of brain Aβ42 relative to vehicle control", "setting": "[10]", "result": 42, "unit": "%"},
      {"measurement": "brain BACE1 activity", "setting": "[11]", "result": "increase"},
      {"measurement": "mean latency period relative to age-matched controls", "setting": "[12]", "result": "significantly reduced"},
      {"measurement": "CSF Aβ", "setting": "[13]", "result": "dose response reduction"},
      {"measurement": "CSF Aβ(42)", "setting": "[13]", "result": "dose response reduction"},
      {"measurement": "brain Aβ(40)", "setting": "[13]", "result": "dose response reduction"},
      {"measurement": "brain Aβ(42)", "setting": "[13]", "result": "dose response reduction"},
      {"measurement": "plasma Aβ(40)", "setting": "[13]", "result": "dose response reduction"},
      {"measurement": "plasma Aβ(42)", "setting": "[13]", "result": "dose response reduction"}
    ]},
    {"smiles": "[2H]C([2H])([2H])C([2H])(CCNC(=O)[C@H](CC(C)C)NC(=O)[C@H]1O[C@@H]1C(=O)OCC)C([2H])([2H])[2H]", "note": "[Compound E64d7]", "values": [
      {"measurement": "brain cathepsin B activity", "setting": "[5]", "result": "dose response reduction"},
      {"measurement": "brain BACE1 activity", "setting": "[11]", "result": "increase"},
      {"measurement": "CSF Aβ", "setting": "[13]", "result": "dose response reduction"},
      {"measurement": "CSF Aβ(42)", "setting": "[13]", "result": "dose response reduction"},
      {"measurement": "brain Aβ(40)", "setting": "[13]", "result": "dose response reduction"},
      {"measurement": "brain Aβ(42)", "setting": "[13]", "result": "dose response reduction"},
      {"measurement": "plasma Aβ(40)", "setting": "[13]", "result": "dose response reduction"},
      {"measurement": "plasma Aβ(42)", "setting": "[13]", "result": "dose response reduction"}
    ]}
  ]
}
